Reference: patent US20250129067A1 (Progentos Therapeutics, Inc., priority 2021, published 2025)
Like-named read-outs stand apart in the source and are kept apart here.

How the values were obtained:
PDGFRα = PDGFRα (Homo sapiens (Human), UniProt P16234); assay: PDGFRα kinase enzyme assay (Promega PDGFRα Kinase Enzyme System, ADP-Glo); format: biochemical; details: 150 uM ATP
Outline: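 Read-out was ADP-Glo: remaining ATP depleted, ADP converted to luminescence and compared with a standard curve.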

[1] = system: GPR17+ cells (newly differentiated oligodendrocytes); assay: In vivo OPC differentiation, GPR17+ cells in brain; details: for In vivo GPR17+ cells, GPR17 Fold Induction (Over Vehicle): adult female C57BL/6 mice, PO or IP, treatment period 1-3 days, entire brain, fold change over vehicle treated animals
Procedure: The ability of newly constructed compounds to drive OPC differentiation and myelination in vivo was tested. The ability of these compounds to drive OPC differentiation in vivo was tested using GPR17 as an indicator of newly differentiated oligodendrocytes.
Compounds were delivered PO or IP either QD or BID. Mice were dosed once, transiently, or continuously through the treatment period, which ranged from 1-3 days.
Mice were euthanized by isoflurane exposure and transcardially perfused with 14 mL of PBS (Sigma Cat #P4417-50TAB) followed by 22 mL of 3.2% paraformaldehyde in PBS. The brains were removed and postfixed for a minimum of 24 hours in 20 mL of 3.2% paraformaldehyde.
50-micron floating sections were cut using a Leica VT1200S vibratome. Every 24th section, extending through the antero-posterior extent of the brain, was stained. The selected brain sections were washed three times in PBS for 3 minutes each. The floating sections were incubated in the primary antibodies (see Table 10, below) diluted in blocking solution overnight at room temperature on a shaker. […] The next day, the sections were again washed three times in PBS for 3 minutes each and then incubated in the secondary antibodies diluted in blocking solution for 2 hours at room temperature on a shaker. After incubation, the sections were washed three times in PBS for 3 minutes each and mounted on a slide to be imaged using the Olympus Slide Scanner VS200.
The images were analyzed using a custom protocol developed using Visiopharm software to count GPR17+ cells. Cells were considered GPR17+ if they contained an Olig2 positive nucleus, and intense GPR 17 staining that filled their processes. Statistical analysis was done using one-way ANOVA with multiple comparison in GraphPad Prism software.

[2] = system: Oligodendrocyte progenitor cells (OPCs); assay: In vitro OPC differentiation assay, GPR17 expression (immunocytochemistry); details: 72 hours; for GPR17 Fold Induction (Over Vehicle; 3 μM): 3 μM (10× concentration, final 0.3 μM), fold change over vehicle; for GPR17 Fold Induction (Over Vehicle; 5 μM): primary rat OPCs, 5 μM (10x; final 0.5 μM per method), percent GPR17+ cells as fold change over vehicle
[3] = 11-point dose response, 10,000 nM to 0.169 nM, BLQ = below limit of quantitation, read-out: IC50 Values on PDGFRα Kinase Inhibition, IC50
[4] = Mus musculus, po, 24 h, read-out: GPR17 Fold Induction (Over Vehicle)
[5] = 20 ng purified PDGFRα, Poly (Glu4Tyr1) substrate, two hours, 11-point dose response, read-out: IC50 Values on PDGFRα Kinase Inhibition

Chain of PDGFRα (P16234 24-1089): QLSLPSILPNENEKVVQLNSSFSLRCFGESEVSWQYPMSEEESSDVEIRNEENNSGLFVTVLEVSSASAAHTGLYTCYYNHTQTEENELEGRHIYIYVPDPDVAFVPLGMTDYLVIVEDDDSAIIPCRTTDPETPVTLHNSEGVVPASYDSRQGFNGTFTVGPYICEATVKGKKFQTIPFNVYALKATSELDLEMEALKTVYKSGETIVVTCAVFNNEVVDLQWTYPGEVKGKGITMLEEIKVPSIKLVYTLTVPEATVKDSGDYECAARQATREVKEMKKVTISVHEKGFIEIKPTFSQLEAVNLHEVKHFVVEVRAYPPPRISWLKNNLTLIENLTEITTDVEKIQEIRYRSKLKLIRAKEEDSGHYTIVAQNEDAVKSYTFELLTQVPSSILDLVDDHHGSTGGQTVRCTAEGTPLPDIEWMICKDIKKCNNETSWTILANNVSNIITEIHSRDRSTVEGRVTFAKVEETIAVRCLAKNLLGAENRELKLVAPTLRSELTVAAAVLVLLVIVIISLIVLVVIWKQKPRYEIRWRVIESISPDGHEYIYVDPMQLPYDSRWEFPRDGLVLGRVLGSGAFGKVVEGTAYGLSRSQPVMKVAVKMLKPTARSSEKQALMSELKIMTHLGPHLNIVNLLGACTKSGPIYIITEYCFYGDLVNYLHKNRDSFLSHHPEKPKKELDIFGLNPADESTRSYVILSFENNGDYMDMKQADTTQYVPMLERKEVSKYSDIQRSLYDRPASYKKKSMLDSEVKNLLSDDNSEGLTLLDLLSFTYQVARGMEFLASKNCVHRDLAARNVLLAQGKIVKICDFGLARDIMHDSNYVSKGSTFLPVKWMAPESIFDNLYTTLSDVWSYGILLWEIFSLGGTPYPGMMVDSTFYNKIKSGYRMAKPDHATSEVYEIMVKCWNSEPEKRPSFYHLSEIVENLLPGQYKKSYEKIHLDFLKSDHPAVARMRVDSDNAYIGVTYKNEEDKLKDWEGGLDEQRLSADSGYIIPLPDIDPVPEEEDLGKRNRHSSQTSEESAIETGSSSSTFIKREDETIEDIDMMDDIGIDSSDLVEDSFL

Row | IC50 (PDGFRα; [3]) | GPR17 Fold Induction (Over Vehicle; 3 μM) [2] | Structure (SMILES) | fold induction at 3 mg/kg [1, 4] | further results
1 | 17.3 nM | 12.64 | Cc1ccc(C(C)OC(=O)N2CCN(c3cnn4cc(-c5cnn(C)c5)ccc34)CC2)cn1 (centres unmarked) [Compound 317, 1-(6-methylpyridin-3-yl)ethyl 4-[6-(1-methyl-1H-pyrazol-4-yl)pyrazolo[1,5-a]pyridin-3-yl]piperazine-1-carboxylate] | 2.97 | 
2 | 58.9 nM | 3.62 | Cn1cc(-c2ccc3c(N4CCN(C(=O)NCc5ccc(C(F)(F)F)cc5)CC4)cnn3c2)cn1 [Compound 279, 4-[6-(1-methyl-1H-pyrazol-4-yl)pyrazolo[1,5-a]pyridin-3-yl]-N-[4-(trifluoromethyl)benzyl]piperazine-1-carboxamide] | 6.33 | 
3 | 547 nM | 4.27 | C[C@@H](OC(=O)N1CCN(c2cnn3cc(-c4cnn(C)c4)ccc23)CC1)c1cccnc1 [Compound 315, (1R)-1-pyridin-3-ylethyl 4-[6-(1-methyl-1H-pyrazol-4-yl)pyrazolo[1,5-a]pyridin-3-yl]piperazine-1-carboxylate] | 1.05 | 
4 | 13 nM | 9.05 | CC(OC(=O)N1CCN(c2cnn3cc(-c4cnn(C)c4)ccc23)CC1)c1ccc(C(F)(F)F)c(F)c1 (centres unmarked) [Compound 273, 1-(3-fluoro-4-(trifluoromethyl)phenyl)ethyl 4-(6-(1-methyl-1H-pyrazol-4-yl)pyrazolo[1,5-a]pyridin-3-yl)piperazine-1-carboxylate] | 3.78 | 
5 |  | 5.90 | C[C@@H](OC(=O)N1CCN(c2cnc3cc(-c4cnn(C)c4)cnn23)CC1)c1ccc(C(F)(F)F)cc1 [Compound 283, (R)-1-(4-(trifluoromethyl)phenyl)ethyl 4-(7-(1-methyl-1H-pyrazol-4-yl)imidazo[1,2-b]pyridazin-3-yl)piperazine-1-carboxylate] | 6.8 | IC50 Values on PDGFRα Kinase Inhibition, IC50 (nM) (PDGFRα; 11-point dose response, 10,000 nM to 0.169 nM, BLQ = below limit of quantitation): BLQ
6 | 158 nM | 7.71 | C[C@@H](OC(=O)N1CCN(c2cnn3cc(-c4cnn(C)c4)ccc23)CC1)c1ccc(Cl)cc1Cl [Compound 270, (1R)-1-(2,4-dichlorophenyl)ethyl 4-[6-(1-methyl-1H-pyrazol-4-yl)pyrazolo[1,5-a]pyridin-3-yl]piperazine-1-carboxylate] | 1.92 | 
7 | > 10000 nM | 2.61 | Cn1cc(-c2ccc3c(N4CCN(c5ncc(C(F)(F)c6ccc(F)cc6)cn5)CC4)cnn3c2)cn1 [Compound 262, 3-(4-(5-(difluoro (4-fluorophenyl)methyl)pyrimidin-2-yl)piperazin-1-yl)-6-(1-methyl-1H-pyrazol-4-yl)pyrazolo[1,5-a]pyridine] |  | 
8 | 397 nM | 10.65 | Cn1cc(-c2cnn3c(N4CCN(S(=O)(=O)NCc5ccc(C(F)(F)F)cc5)CC4)cnc3c2)cn1 [Compound 296, 4-(7-(1-methyl-1H-pyrazol-4-yl)imidazo[1,2-b]pyridazin-3-yl)-N-(4-(trifluoromethyl)benzyl)piperazine-1-sulfonamide] |  | 

Further lines, the compound ahead of its results:

Row | Structure (SMILES) | IC50 (PDGFRα; [3]) | GPR17 Fold Induction (Over Vehicle; 3 μM) [2] | fold induction at 3 mg/kg [1, 4] | further results
9 | Cc1ccccc1C(OCCN(C)C)c1ccccc1 (centres unmarked) [Orphenadrine] |  |  |  | In vivo GPR17+ cells, GPR17 Fold Induction (Over Vehicle) [1]: 1.07
10 | Cn1cc(-c2ccc3c(N4CCN(c5ccc(Cc6ccccc6)nc5)CC4)cnn3c2)cn1 [Compound 151, 3-(4-(6-benzylpyridin-3-yl)piperazin-1-yl)-6-(1-methyl-1H-pyrazol-4-yl)pyrazolo[1,5-a]pyridine] | 2780 nM | 20.40 | 1.73 | 
11 | CNC(=O)c1cc(COc2nnc(Nc3ccc(Cl)cc3)c3ccoc23)ccn1 [Telatinib, telatinib, reference compound] |  |  |  | IC50 (PDGFRα; [5]): 68.8 nM; In vivo GPR17+ cells, GPR17 Fold Induction (Over Vehicle) [1]: 10.68; GPR17 Fold Induction (Over Vehicle; 5 μM) [2]: 3.90
12 | Cn1cc(-c2ccc3c(N4CCC(c5ncc(Cc6ccccc6)cn5)CC4)cnn3c2)cn1 [Compound 148, 3-(4-(5-benzylpyrimidin-2-yl)piperidin-1-yl)-6-(1-methyl-1H-pyrazol-4-yl)pyrazolo[1,5-a]pyridine] | 8160 nM | 7.82 | 1.22 | 
13 | Cc1ccc(Cc2cnc(N3CCN(c4cnn5cc(-c6cnn(C)c6)ccc45)CC3)nc2)cc1 [Compound 67, 3-{4-[5-(4-methylbenzyl)pyrimidin-2-yl]piperazin-1-yl}-6-(1-methyl-1H-pyrazol-4-yl)pyrazolo[1,5-a]pyridine] | 784 nM | 3.41 |  | fold induction at 10 mg/kg [1, 4]: 9.4
14 | CCN(CC)CCNC(=O)c1c(C)[nH]c(/C=C2\C(=O)Nc3ccc(-c4csc(-c5ccccc5)n4)cc32)c1C [Amcasertib, amcasertib, reference compound] |  |  |  | In vivo GPR17+ cells, GPR17 Fold Induction (Over Vehicle) [1]: 1.49
15 | COCCOc1ccc2c(c1)ncn2-c1ccc2cccc(N3CCC(N)CC3)c2n1 [CP-673451, reference compound] |  |  |  | IC50 (PDGFRα; [5]): 115 nM; In vivo GPR17+ cells, GPR17 Fold Induction (Over Vehicle) [1]: 3.52; GPR17 Fold Induction (Over Vehicle; 5 μM) [2]: 2.94
16 | C[C@@H](OC(=O)N1CCN(c2cnn3cc(-c4cnn(C)c4)ccc23)CC1)c1cccc(F)c1 [Compound 79, (1R)-1-(3-Fluorophenyl)ethyl 4-[6-(1-methyl-1H-pyrazol-4-yl)pyrazolo[1,5-a]pyridin-3-yl]piperazine-1-carboxylate] | 16.1 nM | 5.46 | 2.81 | 
17 | Cn1cc(-c2ccc3c(N4CCN(c5ncc(Cc6ccco6)cn5)CC4)cnn3c2)cn1 [Compound 181, 3-(4-(5-(furan-2-ylmethyl)pyrimidin-2-yl)piperazin-1-yl)-6-(1-methyl-1H-pyrazol-4-yl)pyrazolo[1,5-a]pyridine] | 1860 nM | 4.87 | 1 | 
18 | Cn1cc(-c2ccc3c(N4CCN(c5ncc([S+]([O-])c6ccccc6)cn5)CC4)cnn3c2)cn1 (centres unmarked) [Compound 187, 6-(1-methyl-1H-pyrazol-4-yl)-3-(4-(5-(phenylsulfinyl)pyrimidin-2-yl)piperazin-1-yl)pyrazolo[1,5-a]pyridine] | 153 nM | 4.97 | 1.32 | 
19 | Cn1cc(-c2ccc3c(N4CCN(c5ccc(C(O)c6ccccc6)nc5)CC4)cnn3c2)cn1 (centres unmarked) [Compound 241, (5-(4-(6-(1-methyl-1H-pyrazol-4-yl)pyrazolo[1,5-a]pyridin-3-yl)piperazin-1-yl)pyridin-2-yl)(phenyl)methanol] | 974 nM | 16.27 | 6.43 | 
20 | Cn1cc(-c2ccc3c(C4CCN(c5ncc(Cc6ccccc6)cn5)CC4)cnn3c2)cn1 [Compound 63, 3-[1-(5-benzylpyrimidin-2-yl)piperidin-4-yl]-6-(1-methyl-1H-pyrazol-4-yl)pyrazolo[1,5-a]pyridine] | 1100 nM | 8.97 | 1.83 | 
21 | Cn1cc(-c2ccc3c(N4CCN(c5ncc(CC6CCCCO6)cn5)CC4)cnn3c2)cn1 (centres unmarked) [Compound 184, 6-(1-methyl-1H-pyrazol-4-yl)-3-(4-(5-((tetrahydro-2H-pyran-2-yl)methyl)pyrimidin-2-yl)piperazin-1-yl)pyrazolo[1,5-a]pyridine] | 126 nM | 9.26 | 1.07 | 
22 | CC(C)(C)OC(=O)N1CCN(c2cnn3cc(-c4cccnc4)ccc23)CC1 [Compound 217, tert-butyl 4-(6-(pyridin-3-yl)pyrazolo[1,5-a]pyridin-3-yl)piperazine-1-carboxylate] | 594 nM | 1.69 | 0.97 | 
23 | S=C(NCc1ccc2c(c1)OCO2)N1CCN(c2ncnc3c2oc2ccccc23)CC1 [Amuvatinib, amuvatinib, reference compound] |  |  |  | In vivo GPR17+ cells, GPR17 Fold Induction (Over Vehicle) [1]: 2.18
24 | Cc1[nH]c(/C=C2\C(=O)Nc3ccc(F)cc32)c(C)c1C(=O)NC[C@H](O)CN1CCOCC1 [SU-14813, reference compound] |  |  |  | In vivo GPR17+ cells, GPR17 Fold Induction (Over Vehicle) [1]: 2.63; GPR17 Fold Induction (Over Vehicle; 5 μM) [2]: 4.12
25 | Cc1[nH]c(/C=C2\C(=O)Nc3ccccc32)c(C)c1CCC(=O)O [Orantinib, orantinib, reference compound] |  |  |  | In vivo GPR17+ cells, GPR17 Fold Induction (Over Vehicle) [1]: 2.43
26 | CN(C[C@@H]1COCCO1)S(=O)(=O)Nc1ccc2ccc3ncc(-c4cnn(C)c4)cc3c(=O)c2c1 [MK-2461, reference compound] |  |  |  | In vivo GPR17+ cells, GPR17 Fold Induction (Over Vehicle) [1]: 1.47
27 | Cn1cc(-c2cn3c(N4CCN(c5ncc(Cc6ccccc6)cn5)CC4)cnc3cn2)cn1 [Compound 21, 3-[4-(5-benzylpyrimidin-2-yl)piperazin-1-yl]-6-(1-methyl-1H-pyrazol-4-yl)imidazo[1,2-a]pyrazine] |  |  |  | fold induction at 150 mg/kg ([1]; Mus musculus, ip, 24 h, read-out: GPR17 Fold Induction (Over Vehicle)): 1.48
28 | Cc1cnc(COC(=O)N2CCN(c3cnn4cc(-c5cnn(C)c5)ccc34)CC2)o1 [Compound 199, (5-methyloxazol-2-yl)methyl 4-(6-(1-methyl-1H-pyrazol-4-yl)pyrazolo[1,5-a]pyridin-3-yl)piperazine-1-carboxylate] | 1240 nM | 4.08 |  | 
